These results are taken from patent US20020010186A1, “Dihydropyrimidines and uses thereof” (Synaptic Pharmaceutical Corporation, priority 1996, published 2002).

The structures appear in SMILES notation. Structures can show the parent of a compound that is named as a salt.

One data set has as its target T1, human α1D receptor (Homo sapiens, UniProt P25100).
T1 sequence (P25100 1-572): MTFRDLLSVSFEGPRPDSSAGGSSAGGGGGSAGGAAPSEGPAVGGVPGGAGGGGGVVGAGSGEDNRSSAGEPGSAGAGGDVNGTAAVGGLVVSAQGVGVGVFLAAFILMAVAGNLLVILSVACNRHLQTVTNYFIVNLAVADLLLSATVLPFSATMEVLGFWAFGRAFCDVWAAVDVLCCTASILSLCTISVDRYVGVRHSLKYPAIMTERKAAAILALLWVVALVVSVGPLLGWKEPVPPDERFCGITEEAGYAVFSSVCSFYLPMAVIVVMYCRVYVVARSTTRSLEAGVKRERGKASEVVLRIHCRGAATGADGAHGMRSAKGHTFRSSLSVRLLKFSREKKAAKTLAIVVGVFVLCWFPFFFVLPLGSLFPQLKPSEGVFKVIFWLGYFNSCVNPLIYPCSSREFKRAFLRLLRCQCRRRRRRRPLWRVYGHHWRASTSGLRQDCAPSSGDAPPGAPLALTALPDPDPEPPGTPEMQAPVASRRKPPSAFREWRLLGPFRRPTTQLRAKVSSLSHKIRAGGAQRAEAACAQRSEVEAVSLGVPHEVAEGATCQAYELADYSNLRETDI
As to the kind of experiment: Radioligand binding assay ([3H]prazosin) at cloned human α1D adrenergic receptor. Conditions: membranes of LM(tk-) cells, [3H]prazosin 0.5 nM; for Ki: read-out: hα1d pKi (converted). Here is the method: (§1) These cell lines were prepared by transfecting the cloned cDNA or cloned genomic DNA or constructs containing both genomic DNA and cDNA encoding the human u-adrenergic receptors as follows:
The cells were grown, in a controlled environment ([…]., 5% CO2), as monolayers in Dulbecco's modified Eagle's Medium (GIBCO, Grand Island, N.Y.) containing 25 mM glucose and supplemented with 10% bovine calf serum, 100 units/ml penicillin g, and 100 μg/ml streptomycin sulfate.
(§2) The construct involved ligating three partial overlapping fragments: a 5′ 0.6 kb HincII genomic clone, a central 1.8 EcoRI hippocampal cDNA clone, and a 3′ 0.6Kb PstI genomic clone. The hippocampal cDNA fragment overlaps with the 5′ and 3′ genomic clones so that the HincII and PstI sites at the 5′ and 3′ ends of the cDNA clone, respectively, were utilized for ligation. This full-length clone was cloned into the KpnI site of the expression vector, using the 5′ and 3′ KpnI sites of the fragment, derived from vector (i.e., pBluescript) and 3′-untranslated sequences, respectively. Stable cell lines were selected as described above. […] Radioligand Binding Assays: Transfected cells from culture flasks were scraped into 5 ml of 5 mM Tris-HCl, 5 mM EDTA, pH 7.5, and lysed by sonication. The cell lysates were centrifuged at 1000 rpm for 5 min at 4° C., and the supernatant was centrifuged at 30,000×g for 20 min at 4° C. The pellet was suspended in 50 mM Tris-HCl, 1 mM MgCl2, and 0.1% ascorbic acid at pH 7.5. Binding of the al antagonist [^3H]prazosin (0.5 nM, specific activity 76.2 Ci/mmol) to membrane preparations of LM(tk-) cells was done in a final volume of 0.25 ml and incubated at 37° C. for 20 min. Nonspecific binding was determined in the presence of 10 μM phentolamine. The reaction was stopped by filtration through GF/B filters using a cell harvester.

The next data set has as its target T2, human α1B receptor (Homo sapiens, UniProt P35368).
T2 sequence (P35368 1-520): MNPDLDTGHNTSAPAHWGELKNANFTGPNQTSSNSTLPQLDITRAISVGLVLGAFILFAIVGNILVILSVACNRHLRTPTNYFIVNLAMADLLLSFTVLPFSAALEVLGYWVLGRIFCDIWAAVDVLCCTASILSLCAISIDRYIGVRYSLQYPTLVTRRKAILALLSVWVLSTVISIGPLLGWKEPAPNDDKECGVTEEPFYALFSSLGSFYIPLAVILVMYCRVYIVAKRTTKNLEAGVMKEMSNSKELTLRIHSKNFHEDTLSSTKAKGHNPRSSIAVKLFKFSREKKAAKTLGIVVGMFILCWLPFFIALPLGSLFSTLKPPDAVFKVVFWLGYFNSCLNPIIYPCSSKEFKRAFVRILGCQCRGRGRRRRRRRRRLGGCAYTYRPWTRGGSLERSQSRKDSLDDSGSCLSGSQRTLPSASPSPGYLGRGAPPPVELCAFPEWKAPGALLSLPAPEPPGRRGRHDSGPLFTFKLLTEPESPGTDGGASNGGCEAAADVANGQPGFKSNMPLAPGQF
As to the kind of experiment: Radioligand binding assay ([3H]prazosin) at cloned human α1B adrenergic receptor. To be noted: membranes of LM(tk-) cells, [3H]prazosin 0.5 nM; for Ki: read-out: hα1b pKi (converted). Here is the method: as §1
The construct involved ligating the full-length containing EcoRI brainstem cDNA fragment from λ ZapII into the expression vector. Stable cell lines were selected as described above.
as §2

The target in another data set is T3, human α1A receptor (Homo sapiens, UniProt P35348).
T3 sequence (P35348 1-466): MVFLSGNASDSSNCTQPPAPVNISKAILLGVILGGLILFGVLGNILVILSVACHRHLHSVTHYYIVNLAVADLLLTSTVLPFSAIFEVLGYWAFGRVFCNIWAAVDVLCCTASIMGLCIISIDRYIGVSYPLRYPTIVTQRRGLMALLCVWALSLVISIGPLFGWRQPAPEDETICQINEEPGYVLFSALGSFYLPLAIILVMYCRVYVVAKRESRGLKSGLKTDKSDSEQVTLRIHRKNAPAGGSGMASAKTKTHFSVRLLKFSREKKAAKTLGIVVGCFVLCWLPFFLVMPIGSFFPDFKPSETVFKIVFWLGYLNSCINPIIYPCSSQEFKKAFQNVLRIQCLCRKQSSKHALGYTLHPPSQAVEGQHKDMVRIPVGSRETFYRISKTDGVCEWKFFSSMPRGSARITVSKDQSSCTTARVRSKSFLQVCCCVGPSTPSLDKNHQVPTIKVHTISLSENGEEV
As to the kind of experiment: Radioligand binding assay ([3H]prazosin) at cloned human α1A adrenergic receptor. To be noted: membranes of LM(tk-) cells, [3H]prazosin 0.5 nM; for Ki: read-out: hα1a pKi (converted). Here is the method:
as §1, §2

Usually melting point stands for the temperature, or range, at which the solid turns liquid. Consider `COC(=O)N1C(C)=NC(C)=C(C(=O)NCCCN2CCC(C(=O)OC)(c3ccccc3)CC2)C1c1ccc(F)c(F)c1` (centres unmarked), for which the melting point was 55 to 57 °C. On the same count and under the same terms, the value for `COCN1C(C)=NC(C)=C(C(=O)NCCCN2CCC(C(=O)OC)(c3ccccc3)CC2)C1c1ccc(F)c(F)c1` (centres unmarked) was 53 to 57 °C; that for `COCC1=C(C(=O)OC)C(c2ccc(F)c(F)c2)N(C(=O)NCCCN2CCC(c3ccccc3)(c3cccs3)CC2)C(=O)N1` (centres unmarked) was 157 to 159 °C.

For the molecule `COCC1=C(C(=O)OC)C(c2ccc(F)c(F)c2)N(C(=O)NCCCN2CCC(c3ccccc3)(c3ccco3)CC2)C(=O)N1` (centres unmarked), the melting point lay in the range of 153 to 155 °C. On the same count and under the same terms, the value for `COCC1=NC(C)=C(C(=O)OC)C(c2ccc(F)c(F)c2)N1CCCCCN1CCC(c2ccc(C)cc2)(c2ccccc2C)CC1` (centres unmarked) (as salt: HCl) was 137 to 140 °C; that for `COC(=O)C1=C(C)N=C(C)N(CCCCCN2CCC(C(=O)OC)(c3ccccc3)CC2)C1c1ccc(F)c(F)c1` (centres unmarked) (as salt: HCl) [Example 17, 6-(3,4-Difluorophenyl)-1,6-dihydro-5-methoxycarbonyl-1-(5-(4-methoxycarbonyl-4-phenylpiperidin-1-yl)-pentyl)-2,4-dimethylpyrimidine] was 170 to 176 °C; that for `COC(=O)C1=C(C)N=C(C)N(CCCCCNCCCc2ccccc2)C1c1ccc(F)c(F)c1` (centres unmarked) (as salt: HCl) [Example 55, 6-(3,4-Difluorophenyl)-1,6-dihydro-5-methoxycarbonyl-2,4-dimethyl-1-(5-(3-phenylpropylamino)pentyl)-pyrimidine] was 95 to 97 °C. On the same count and under the same terms, the value for `COC(=O)C1=C(C)NC(=O)N(C(=O)NCCCN2CCC(c3ccccn3)CC2)C1c1ccc(F)c(F)c1` (centres unmarked) (as salt: hydrochloride) [Example 15, 6-(3,4-Difluorophenyl)-5-methoxycarbonyl-4-methyl-2-oxo-1-{N-[4-(2-pyridyl)-piperidine-1-yl]propyl}carboxamido-1,2,3,6-tetrahydropyrimidine Dihydrochloride] was 170 to 174 °C. In turn, `COC(=O)C1=C(C)N=C(C)N(CCCC(O)CN2CCC(c3ccccn3)CC2)C1c1ccc(F)c(F)c1` (single isomer, unassigned; (+)) (as salt: HCl) [Example 56, (+)-6-(3,4-Difluorophenyl)-1,6-dihydro-1-(4-hydroxy-5-(4-(2-pyridyl)piperidin-1-yl)pentyl)-5-methoxycarbonyl-2,4-dimethylpyrimidine] yielded a melting point of 163 to 165 °C. On to `CCC1=C(C(N)=O)C(c2ccc(F)c(F)c2)N(C(=O)NCCCN2CCC(C(=O)OC)(c3ccccc3)CC2)C(=O)N1` (single isomer, unassigned; (+)) [Example 14, (+)-5-Carboxamido-6-(3,4-difluorophenyl)-4-ethyl-1-{N-[3-(4-methoxycarbonyl-4-phenylpiperidin-1-yl)propyl]}carboxamido-2-oxo-1,2,3,6-tetrhydropyrimidine], for which the “hα1d pKi” value at human α1D receptor worked out at 6.46. Moreover, at human α1B receptor, the “hα1b pKi” value is recorded as 6.59. The “hα1a pKi” value at human α1A receptor is given as 9.68. Consider `COC(=O)C1=C(C)NC(=O)N(C(=O)NCCCN2CCC(c3ccccn3)CC2)C1c1ccc(F)c(F)c1` (centres unmarked) [Example 15, 6-(3,4-Difluorophenyl)-5-methoxycarbonyl-4-methyl-2-oxo-1-{N-[4-(2-pyridyl)-piperidine-1-yl]propyl}carboxamido-1,2,3,6-tetrahydropyrimidine Dihydrochloride], for which the Ki is 977 nM on human α1D receptor, 468 nM on human α1B receptor and 0.389 nM at human α1A receptor. On the same counts, the results for `COC(=O)C1=C(C)NC(=O)N(C(=O)NCCCN2CCC(c3ccccn3)CC2)C1c1ccc2nonc2c1` (centres unmarked) [Example 16, 6-(3,4-Benzofurazan-5-yl)-5-methoxycarbonyl-4-methyl-2-oxo-1-{N-[4-(2-pyridyl)-piperidin-1-yl]propyl}carboxamido-1,2,3,6-tetrahydropyrimidine Dihydrochloride] are 575 nM, 427 nM and 0.288 nM. Turning to `COC(=O)C1=C(C)N=C(C)N(CCCCCN2CCC(C(=O)OC)(c3ccccc3)CC2)C1c1ccc(F)c(F)c1` (centres unmarked) [Example 17, 6-(3,4-Difluorophenyl)-1,6-dihydro-5-methoxycarbonyl-1-(5-(4-methoxycarbonyl-4-phenylpiperidin-1-yl)-pentyl)-2,4-dimethylpyrimidine], the “hα1d pKi” value on human α1D receptor was 6.17. On human α1B receptor, the “hα1b pKi” value was 6.32.
